Key:
[1] = test system: patient with end stage renal failure undergoing dialysis; assay: Arterial and valve calcification in a renal dialysis patient; format: in vivo, human; conditions: 90 mg 2-hour i.v. infusion once a month for three months, one year following initial treatment
Description: The Effect of a Bisphosphonate on Arterial and Valve Calcification in a Renal Dialysis Patient A patient with end stage renal failure undergoing dialysis was diagnosed with severe osteoporosis. The patient was treated with 90 mg of pamidronate disodium administered via a 2-hour intravenous infusion once a month for a total of three months. […] This reduction in calcification was independently corraborated by three physicians who viewed the radiographic images in a blinded fashion.

[2] = test system: rat carotid arteries, balloon injured; assay: 28 day rat carotid artery balloon injury model (late neointimal lesion formation); format: in vivo; conditions: for percent inhibition of neointimal lesion formation: 28 days post-balloon injury
Description: Inhibition of Late Neointimal Lesion Formation in the 28 Day Rat Carotid Artery Balloon Injury Model
Zoledronic acid is tested in the following rat model.
Rats are dosed orally with […]. Daily dosing starts 3 days prior to surgery and continues for 31 days. Rat carotid arteries are balloon injured using a method described by Clowes et al. Lab. Invest. 1983; 49; 208-215. Following sacrifice at 28 days post-balloon injury, carotid arteries are removed and processed for histologic and morphometric evaluation.

[3] = test system: New Zealand White rabbit iliac arteries; assay: Rabbit iliac stent model, restenosis at 28 days; format: in vivo
Description: A combined angioplasty and stenting procedure is performed in New Zealand White rabbit iliac arteries. Iliac artery balloon injury is performed by inflating a 3.0×9.0 mm angioplasty balloon in the mid-portion of the artery followed by “pull-back” of the catheter for 1 balloon length. Balloon injury is repeated 2 times, and a 3.0×12 mm stent is deployed at 6 atm for 30 seconds in the iliac artery. Balloon injury and stent placement is then performed on the contralateral iliac artery in the same manner. A post-stent deployment angiogram is performed. All animals receive oral aspirin 40 mg/day daily as anti-platelet therapy and are fed standard low-cholesterol rabbit chow. Twenty-eight days after stenting, animals are anesthetized and euthanized and the arterial tree is perfused at 100 mmHg with lactated Ringer's for several minutes, then perfused with 10% formalin at 100 mmHg for 15 minutes. The vascular section between the distal aorta and the proximal femoral arteries is excised and cleaned of periadventitial tissue. The stented section of artery is embedded in plastic and sections are taken from the proximal, middle, and distal portions of each stent. All sections are stained with hematoxylin-eosin and Movat pentachrome stains. Computerized planimetry is performed to determine the area of the internal elastic lamina (IEL), external elastic lamina (EEL) and lumen. The neointima and neointimal thickness is measured both at and between the stent struts. The vessel area is measured as the area within the EEL. Data are expressed as mean±SEM. Statistical analysis of the histologic data is accomplished using analysis of variance (ANOVA) due to the fact that two stented arteries are measured per animal with a mean generated per animal. A P<0.05 is considered statistically significant.
Zoledronic acid is administered orally by gavage at 30 mg/kg once daily from 3 days prior to stenting until day 27 post-stenting.

[4] = test system: LDLr−/− mice; assay: Mouse model of progression of advanced atherosclerosis with vulnerable plaques (arterial calcification, valve calcification, plaque stabilization); format: in vivo
Description: A mouse model of progression of advanced atherosclerosis with development of vulnerable plaques was employed. Male, 4-6 week old LDLr−/− mice were divided into treatment groups of 18-20 animals each. […] The remaining LDLr−/− animals were dosed subcutaneously once per day with either vehicle or zoledronic acid solution (10 mg/kg/day) five out of seven days a week from week from week 15 through week 18 of diet administration. From weeks 19 through 22, no treatment was administered, however mice remained on the atherosclerosis-inducing high cholesterol/cholic acid diet. Mice were sacrificed at the end of week 22 and the heart and aorta were removed. The upper portion of the heart attached to the most proximal portion of the aorta containing the aortic sinus were embedded in OCT and frozen. 10 micron-thick sections were cut through the aortic sinus using a cryostat. Twenty-eight sections per animal were stained with von Kassa and/or hematoxylin. Cross-sectional areas were analyzed by planimetry to allow determination of atherosclerotic lesion area and extent of calcification within the heart valves. The remaining aorta, from the ascending aorta to the iliac bifurcation, as well as the major branches of the aorta were fixed, parafin embedded and cross sectioned for histologic analysis. Atherosclerosis extent and lesion composition was determined for the aorta and innominate (also called brachiocephalic) arteries using approriate staining methodology including hemotoxylin and eosin staining, Verhoff von Giessen staining for elastin, Von Kassa staining for calcium, and immunohistochemical stains for inflammatory cells.

[5] = test system: PDGF receptor immunocomplexes of BALB/c 3T3 cells; conditions: free drug, day after day
Description: PDGF-stimulated receptor tyrosine kinase assay is performed on the last piece of each sample to determine the zoledronic acid activity. The inhibition of PDGF-stimulated receptor tyrosine kinase activity in vitro is measured in PDGF receptor immunocomplexes of BALB/c 3T3 cells, analogously to the method described by E. Andrejauskas-Buchdunger and U. Regenass in Cancer Research 52, 5353-5358 (1992).

[6] = Stability of zoledronic acid in human plasma; format: in vitro ADME; conditions: 37° C. for 72 hours
[7] = at 22 weeks, vs baseline lesions at 15 weeks and vehicle at 22 weeks

Row | Compound | arterial and valve calcification (radiographic images) [1] | percent inhibition of neointimal lesion formation ([2]; 0.5 mg/kg oral gavage) [%] | percent inhibition of neointimal lesion formation ([2]; 2.0 mg/kg oral gavage) [%] | neointimal lesion formation at 28 days following balloon injury ([2]; oral, daily, dose of from 0.2 to 3.5 mg) | extent of restenotic lesion formation ([3]; 30 mg/kg oral gavage once daily, vs placebo) | EEL area compared with control (constrictive remodeling or aneurysmal-type expansion) ([3]; 30 mg/kg oral once daily) | healing of the intima in stented arterial segments ([3]; 30 mg/kg oral once daily) | reduction in average neointimal thickness ([3]; 30 mg/kg oral once daily, P<0.0001) [%] | reduction in percent arterial stenosis ([3]; 30 mg/kg oral once daily, P<0.0002) [%] | reduction in neointimal area ([3]; 30 mg/kg oral once daily, P<0.04) [%] | plaque phenotype (vulnerable or rupture-prone plaques) ([4]; 10 mg/kg/day s.c., four weeks, at 22 weeks, vs baseline and vehicle) | calcification of the aortic valves ([4]; 10 mg/kg/day s.c., vs placebo-treated animals) | progression of atherosclerosis in the aorta and innominate arteries ([4]; 10 mg/kg/day s.c., weeks 15-18, read at 22 weeks of high cholesterol/cholic acid diet, vs vehicle) | fibrous caps of atherosclerotic lesions [4, 7] | inflammatory cells and areas of calcification in atherosclerotic lesions [4, 7] | activity over time in the same assay [5] | stability in human plasma [6]
1 | NCCC(O)(P(=O)(O)O)P(=O)(O)O [pamidronate disodium, 3-amino-1-hydroxypropane-1,1-diphosphonic acid] | noticeable reduction | – | – | – | – | – | – | – | – | – | – | – | – | – | – | – | –
2 | O=P(O)(O)C(O)(Cn1ccnc1)P(=O)(O)O [zoledronic acid, 2-(imidazol-1yl)-1-hydroxyethane-1,1-diphosphonic acid] | – | 17 | 37 | significantly reduce | marked reduction | did not result in differences | well healed | 29 | 17 | 17 | more stable phenotype | significantly less calcification | significantly reduced progression | thicker fibrous caps | less inflammatory cells and areas of calcification | strong decrease | stable
